# Patent US20250221991A1, “COMBINATION THERAPY FOR THE TREATMENT OF CANCER METASTASES” (University of Cincinnati, priority 2024, published 2025)
# Where “and” joins values, the source holds several entries; their conditions need not be identical. Equal entries are not always repeated.
# How the values were obtained:
# MIA PaCa-2 cells [1] = experiment: Soft agar colony formation, MIA PaCa-2; format: cell-based, human
# Method: (§1) The capability of cells to grow under anchorage-independent conditions is a hallmark of transformation and correlates with tumor progression in vivo. The assay was performed in a 60-mm dish with a bottom layer of 2 mL 0.5% agar (Noble Agar, Sigma) in the culture medium that is designated to the cells. The bottom agar was allowed to be solidified in the biosafety cabinet. Cells were suspended in 0.2% agar for PANC-1 cells, MIA PaCa-2 cells, and B16-F10 cells, but in 0.15% agar for MDA-MB-231 cells and 4T1 cells and then plated (1×10^5 cells/2 mL/dish) on top of the bottom layer. 400 μL culture medium with or without the indicated doses of drug treatment was added to cover the top agar layer every other day over 2 weeks for PANC-1, MIA PaCa-2 cells and over 3 weeks for MDA-MB-231 cells, respectively. The colonies in five microscopic fields (top, bottom, left, right and center) of each dish were photographed. […] Each treatment was repeated thrice.
# PANC-1 cells [2] = experiment: Soft agar colony formation, PANC-1; format: cell-based, human
# Method: as §1
# PANC-1 cells [3] = experiment: Deadherent survival (WST-1, poly-HEMA vs plastic), PANC-1; format: cell-based, human
# Method: (§2) Cells were seeded at a density of 10^4 cells/well in 96-well plates, either uncoated or in poly(2-hydroxyethyl methacrylate) (poly-HEMA) coated wells (3 mg of poly-HEMA in 50 μL 95% ethanol, let dry overnight, then washed twice with PBS, followed by one wash with medium before initiation of the experiment). Drugs were added in triplicates at the indicated concentrations for an incubation time of 48 h. At the 48-h time point, the indicator WST-1 was added to each well at 10% v/v final concentration. At the 60-, 80-, and 120-minute time points, the absorbance was measured at 450 nm using a MRX-TC Revelation plate reader.
# MDA-MB-231 cells [4] = experiment: Deadherent survival (WST-1, poly-HEMA vs plastic), MDA-MB-231; format: cell-based; settings: for concentration range of significant growth inhibition on poly-HEMA: deadherent cells
# Method: as §2
# MIA PaCa-2 cells [5] = experiment: Deadherent survival (WST-1, poly-HEMA vs plastic), MIA PaCa-2; format: cell-based, human
# Method: as §2
# MDA-MB-231 cells [6] = experiment: Soft agar colony formation, MDA-MB-231; format: cell-based
# Method: as §1
# [7] = same concentration range that completely suppressed soft agar colony formation
smiles,measurement,setting,value
"C[S+](C)[O-] [DMSO, dimethyl sulfoxide]",soft agar colony frequency,MIA PaCa-2 cells [1]; 0.125%-0.25% (v/v),without impacting
same,soft agar colony frequency,PANC-1 cells [2]; 0.125%-0.25% (v/v),without impacting
same,effect on growth when plated on plastic or on poly-HEMA,PANC-1 cells [3]; [7],no effect
same,effect on growth when plated on plastic or on poly-HEMA,MDA-MB-231 cells [4]; [7],no effect
same,effect on growth when plated on plastic or on poly-HEMA,MIA PaCa-2 cells [5]; [7],no effect
[NH4+].[NH4+].[SH-].[SH-].[S]=[Mo]=[S] [ammonium tetrathiomolybdate],inhibition of soft agar colony size,MDA-MB-231 cells [6]; 0.5 μg/mL,43%
same,inhibition of soft agar colony size,MDA-MB-231 cells [6]; 1 μg/mL,75%
same,inhibition of soft agar colony size,MDA-MB-231 cells [6]; 2 μg/mL,93%
same,inhibition of soft agar colony size,MDA-MB-231 cells [6]; 4 μg/mL,94%
CCCCNc1cc(C(=O)O)cc(S(N)(=O)=O)c1Oc1ccccc1 [bumetanide],concentration suppressing both adherent and deadherent cells,"MDA-MB-231 cells [4]; 48 h, WST-1",above 50 μg/mL
same,concentration range of significant growth inhibition on poly-HEMA,"MDA-MB-231 cells [4]; 48 h, WST-1",15 to 35 µg/mL
same,effect on the same cells in the adherent (plated) state,MDA-MB-231 cells [4]; in the concentration range that significantly inhibits cells on poly-HEMA,without affecting
same,concentration range suppressing proliferation on poly-HEMA,MIA PaCa-2 cells [5]; deadherent cells,1 to 5 µg/mL
Cc1ccc(Nc2nccc(N(C)c3ccc4c(C)n(C)nc4c3)n2)cc1S(N)(=O)=O [pazopanib],concentration inhibiting soft agar colony formation,MIA PaCa-2 cells [1],2.1 μM and 1 μg/mL
same,concentration at which inhibition of soft agar colony formation reaches significance,PANC-1 cells [2],0.25 μM and 0.12 μg/mL
same,concentration inhibiting growth under both conditions (adherent and deadherent),PANC-1 cells [3]; 48 h,Above 2 μg/mL
same,concentration range increasing adherent cell growth,"PANC-1 cells [3]; adherent cells, 48 h",0.4 to 2 µg/mL
same,starting concentration significantly decreasing growth of deadherent cells,"PANC-1 cells [3]; poly-HEMA, 48 h",≥ 0.2 µg/mL
same,concentration at which inhibition of soft agar colony formation reaches significance,MDA-MB-231 cells [6],0.5 μM and 0.24 μg/mL
same,concentration range of significant growth inhibition on poly-HEMA,"MDA-MB-231 cells [4]; 48 h, WST-1",0.4 to 2.0 µg/mL
